Here are results for 13 molecules from patent publication US11827628B2, “Compositions and methods for inhibition of the JAK pathway” (Rigel Pharmaceuticals, Inc., priority 2005, dated 2023).

SMILES strings stand for the structures. Where a name gives a salt, the structure may show the parent alone.

For the first test, the system named is Primary human T-cells. In words: Primary Human T-Cell Proliferation Assay Stimulated with IL-2 (CellTiter-Glo). The test is classed as cell-based. As to conditions: primary human T-cell proliferation stimulated with IL-2; Hydrochloride Salt; read-out: IC50, Example 42. The gist of the method:
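IC50 derived from CellTiter-Glo ATP signal after 72 hours of IL-2-driven proliferation at 37° C. Cells: primary human T-cells from blood, stimulated beforehand 3-4 days on anti-CD3/anti-CD28 with IL-2, then rested from IL-2 before compound exposure in duplicate; IL-2-free wells served as unstimulated control.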
A general note: ATP-based viability assays read luminescence as a measure of living cells.
The IC50 is the midpoint of a concentration-inhibition curve. Consider `NS(=O)(=O)c1cccc(Nc2ncc(F)c(Nc3ccc(OCc4ccccn4)cc3)n2)c1` [Compound I-196, N2-(3-Aminosulfonylphenyl)-5-fluoro-N4-4-[(2-pyridinyl)methyleneoxyphenyl]-2,4-pyrimidinediamine Hydrochloride Salt], for which the IC50 is 139 nM.

Still in this test, the particulars now being: primary human T-cell proliferation stimulated with IL-2; read-out: IC50, Example 42.
As to `CNS(=O)(=O)c1cc(Nc2ncc(F)c(Nc3ccc(-c4ccccn4)c(OCF)c3)n2)ccc1C` [Compound I-173, 5-Fluoro-N2-[3-N-(methyl)aminosulfonyl-4-methylphenyl]-N4-[4-(2-pyridinyl)-3-fluoromethyleneoxyphenyl]-2,4-pyrimidinediamine], the IC50 stood at 907 nM.

For `Cc1cnc(Nc2cccc(S(N)(=O)=O)c2)nc1Nc1ccc(OCc2ccccn2)cc1` [Compound I-179, N2-(3-Aminosulfonylphenyl)-5-methyl-N4-[4-(2-pyridinyl)methyleneoxyphenyl]-2,4-pyrimidinediamine], the IC50 was 11.8 nM.

In the case of `CNS(=O)(=O)c1cc(Nc2ncc(C)c(Nc3ccc(OCc4ccccn4)cc3)n2)ccc1C` [Compound I-180, 5-Methyl-N2-[3-(N-methylaminosulfony)-4-methylphenyl]-N4-[4-(2-pyridinyl)methyleneoxyphenyl]-2,4-pyrimidinediamine], the IC50 was found to be 28.7 nM.

`Cc1ccc(Nc2ncc(F)c(Nc3cccc(OCc4cccnc4)c3)n2)cc1S(N)(=O)=O` [Compound I-183, N2-(3-Aminosulfonyl-4-methylphenyl)-5-fluoro-N4-[3-(3-pyridinyl)methyleneoxyphenyl]-2,4-pyrimidinediamine]: the IC50 amounted to 1830 nM.

For the molecule `CNS(=O)(=O)c1cc(Nc2ncc(F)c(Nc3cccc(OCc4cccnc4)c3)n2)ccc1C` [Compound I-184, 5-Fluoro-N2-[3-(N-methylaminosulfony)-4-methylphenyl]-5-fluoro-N4-[3-(3-pyridinyl)methyleneoxyphenyl]-2,4-pyrimidinediamine], the IC50 was determined as 2570 nM.

As to `CCN(CC)CCNS(=O)(=O)c1ccc(Nc2ncc(F)c(Nc3cccc(OCc4cccnc4)c3)n2)cc1` [Compound I-186, N2-[4-(2-N,N-Diethylaminoethyl)aminosulfonylphenyl)-5-fluoro-N4-[3-(3-pyridinyl)methyleneoxyphenyl]-2,4-pyrimidinediamine], the IC50 is 1080 nM.

Consider `CCN(CC)CCNS(=O)(=O)c1ccc(Nc2ncc(F)c(Nc3ccc(OCc4cccnc4)cc3)n2)cc1` [Compound I-191, N2-[4-(2-N,N-Diethylaminoethyl)aminosulfonylphenyl)-5-fluoro-N4-[4-(3-pyridinyl)methyleneoxyphenyl]-2,4-pyrimidinediamine], for which the IC50 is 292 nM.

On to `NS(=O)(=O)c1cccc(Nc2ncc(F)c(Nc3ccc(SCc4cccnc4)cc3)n2)c1` [Compound I-192, N2-(3-Aminosulfonylphenyl)-5-fluoro-N4-[4-(3-pyridinyl)-methylenethiophenyl]-2,4-pyrimidinediamine], for which the IC50 was determined as 155 nM.

In the case of `Cc1cc(COc2ccc(Nc3nc(Nc4ccc(C)c(S(N)(=O)=O)c4)ncc3F)cc2)[nH]n1` [Compound I-197, N2-(3-Aminosulfonyl-4-methylphenyl)-5-fluoro-N4-[4-(3-methyl-(1H)-pyrazol-5-yl)methyleneoxyphenyl]-2,4-pyrimidinediamine], the IC50 worked out at 329 nM.

Take `Cc1cc(COc2ccc(Nc3nc(Nc4ccc(C)c(S(N)(=O)=O)c4)ncc3F)cc2)n(C)n1` [Compound I-198, N2-(3-Aminosulfonyl-4-methylphenyl)-N4-[4-(1,3-dimethyl-(1H)-pyrazol-5-yl)methyleneoxyphenyl]-5-fluoro-2,4-pyrimidinediamine]: the IC50 stood at 460 nM.

With `Cc1cc(COc2ccc(Nc3nc(Nc4ccc(C)c(S(N)(=O)=O)c4)ncc3F)cc2)n(Cc2ccccc2)n1` [Compound I-199, N2-(3-Aminosulfonyl-4-methylphenyl)-N4-[4-(1-benzyl-3-methyl-(1H)-pyrazol-5-yl)methyleneoxyphenyl]-5-fluoro-2,4-pyrimidinediamine], the IC50 was found to be 3030 nM.

As for `Cc1cc(COc2cccc(Nc3nc(Nc4ccc(C)c(S(N)(=O)=O)c4)ncc3F)c2)no1` [Compound I-214], the IC50 came out at 1330 nM.
